# Results as given in paper PMC3083445, “Mastering the Canonical Loop of Serine Protease Inhibitors: Enhancing Potency by Optimising the Internal Hydrogen Bond Network” (PLoS ONE, 2011).
# Read-outs that look alike come from different tables or passages of the source. Where a SMILES comes first, the peptide text is derived from it. Bridges are numbered along the chain shown (N, C = ends).
# Columns and labels:
# [1] = biological target: T1, KLK14 (Homo sapiens, UniProt Q9P0G3); test: Amidolytic inhibition assay of KLK14 with pNA substrate; type: biochemical
# T1 construct: polyhistidine (C); made in house; host or cells: Sf9 insect cells
# T1 sequence (Q9P0G3 25-251): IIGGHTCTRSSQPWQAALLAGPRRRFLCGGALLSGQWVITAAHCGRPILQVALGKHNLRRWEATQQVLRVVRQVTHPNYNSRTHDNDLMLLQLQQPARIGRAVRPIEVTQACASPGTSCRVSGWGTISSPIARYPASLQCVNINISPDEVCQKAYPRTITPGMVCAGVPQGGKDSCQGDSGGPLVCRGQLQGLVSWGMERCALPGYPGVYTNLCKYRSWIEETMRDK
# Procedure: (§1) Assays with thrombin and trypsin included 10 mM CaCl2. […] Proteolysis fragments were separated on 10% polyacrylamide gels.
# [2] = biological target: T2, β-Trypsin (Bos taurus, UniProt P00760); test: Amidolytic inhibition assay of β-trypsin; type: biochemical, bovine
# T2 construct: Bovine β-trypsin, bovine α-chymotrypsin and human thrombin were obtained from Sigma; purchased Sigma
# T2 sequence (P00760 24-246): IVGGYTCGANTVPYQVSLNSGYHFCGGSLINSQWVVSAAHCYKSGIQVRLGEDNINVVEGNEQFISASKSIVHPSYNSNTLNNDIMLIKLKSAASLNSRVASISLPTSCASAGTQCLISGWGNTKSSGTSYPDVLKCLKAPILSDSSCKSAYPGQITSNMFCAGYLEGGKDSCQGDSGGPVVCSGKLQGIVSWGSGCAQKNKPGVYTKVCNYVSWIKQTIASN
# Procedure: as §1
# [3] = biological target: T3, Matriptase (Homo sapiens, UniProt Q9Y5Y6); test: Amidolytic inhibition assay of matriptase; type: biochemical
# T3 construct: purchased R&D Systems
# T3 sequence (Q9Y5Y6 615-855 limits assumed): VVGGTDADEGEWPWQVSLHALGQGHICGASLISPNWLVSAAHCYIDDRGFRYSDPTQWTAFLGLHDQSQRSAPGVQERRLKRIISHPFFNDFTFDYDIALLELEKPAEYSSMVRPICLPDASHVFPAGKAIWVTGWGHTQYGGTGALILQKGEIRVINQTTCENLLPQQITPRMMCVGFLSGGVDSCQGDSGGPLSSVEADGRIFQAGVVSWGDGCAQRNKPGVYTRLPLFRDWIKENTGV
# Procedure: as §1
# [4] = biological target: T4, Thrombin (Homo sapiens, UniProt P00734); test: Amidolytic inhibition assay of thrombin; type: biochemical
# T4 construct: Bovine β-trypsin, bovine α-chymotrypsin and human thrombin were obtained from Sigma; purchased Sigma
# Procedure: as §1
# [5] = biological target: T5, α-chymotrypsin (Bos taurus, UniProt P00766); test: Amidolytic inhibition assay of α-chymotrypsin; type: biochemical, bovine
# T5 construct: Bovine β-trypsin, bovine α-chymotrypsin and human thrombin were obtained from Sigma; purchased Sigma
# Procedure: as §1
# [6] = biological target: T6, KLK12 (Homo sapiens, UniProt Q9UKR0); test: Inhibition of fibrinogen proteolysis by KLK12 (SDS-PAGE); type: biochemical; conditions: up to 10,000 nM inhibitor; 7 µM fibrinogen, 180 min
# T6 construct: purchased R&D Systems
# T6 sequence (Q9UKR0 18-248): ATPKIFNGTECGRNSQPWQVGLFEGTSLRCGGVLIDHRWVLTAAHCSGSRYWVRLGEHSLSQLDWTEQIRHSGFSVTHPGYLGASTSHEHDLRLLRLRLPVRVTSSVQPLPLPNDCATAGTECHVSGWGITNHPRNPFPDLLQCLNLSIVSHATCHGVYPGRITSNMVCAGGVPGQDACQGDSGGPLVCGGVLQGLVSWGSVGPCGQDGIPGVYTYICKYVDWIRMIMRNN
# Procedure: as §1
# [7] = biological target: T1, KLK14; test: Inhibition of fibrinogen proteolysis by KLK14 (SDS-PAGE); type: biochemical; conditions: up to 10,000 nM inhibitor; 7 µM fibrinogen, 90 min
# Procedure: as §1
# [8] = biological target: T7, trypsin (Bos taurus, UniProt P00760); test: Inhibition of fibrinogen proteolysis by trypsin (SDS-PAGE); type: biochemical, bovine; conditions: up to 10,000 nM inhibitor; 7 µM fibrinogen, 15 min
# T7 construct: Bovine β-trypsin, bovine α-chymotrypsin and human thrombin were obtained from Sigma; purchased Sigma
# T7 sequence (P00760 24-246): T2 sequence (P00760 24-246)
# Procedure: as §1
# [9] = Stability of SFTI variants in culture with prostate cancer cells; type: in vitro ADME; conditions: human; 1 µM inhibitor in serum-containing media on LNCaP, 22Rv1 and PC3 monolayers; residual KLK4 inhibition; read-out: half-life in cell culture
# Procedure: (§2) The half-life in cell culture for SFTI-FCQR Asn14 and SFTI-FCQR Lys14 was determined using previously described methods. Briefly, monolayers of LNCaP, 22Rv1 and PC3 cells were established in RPMI 1640 medium supplemented with 10% foetal calf serum (HyClone), 100 U/ml penicillin (Invitrogen) and 100 µg/ml streptomycin (Invitrogen). Cells were treated ±1 µM inhibitor (SFTI-FCQR Asn14 or SFTI-FCQR Lys14) in fresh serum-containing media. Samples of media were taken at 24 hr intervals and boiled at 97°C for 15 min to denature serum protein. Residual inhibition by SFTI-FCQR variants was determined in competitive kinetic assays (as above), adding a volume of media to give 10 nM SFTI-FCQR Asn14 or 25 nM SFTI-FCQR Lys14 at 0 hr. Media without inhibitor was used to adjust for any endogenous media inhibition and data represent the mean ± SEM of three triplicate experiments.
# [10] = Bioavailability / serum levels in mice by LC-MS; type: in vivo; conditions: 3 mg/kg
# Procedure: Stability and bioavailability of SFTI-FCQR Asn14 in vivo was assessed in BALB/cFoxn1/Arc mice by oral, intravenous and intraperitoneal delivery (3 mg/kg). Inhibitor was dissolved in PBS at a concentration of 0.6 mg/ml prior to dosing. Serum levels of SFTI-FCQR Asn14 were subsequently measured by Liquid Chromatography-Mass Spectrometry (LC-MS) at Tetra Q laboratories (University of Queensland, Brisbane, Australia). This study was carried out in strict accordance to the recommendations of the Australian Code of Practice for the Care and Use of Animals for Scientific purposes (7th edition 2004) and the protocol was approved by the University of Queensland Animal Ethics Committee (ABS group) which assigned the project approval code TetraQ/479/09/Bluebox. All efforts were made to minimize suffering by experimental animals.
# [11] = biological target: T8, KLK4 (Homo sapiens, UniProt Q9Y5K2)
# T8 sequence (Q9Y5K2 31-254): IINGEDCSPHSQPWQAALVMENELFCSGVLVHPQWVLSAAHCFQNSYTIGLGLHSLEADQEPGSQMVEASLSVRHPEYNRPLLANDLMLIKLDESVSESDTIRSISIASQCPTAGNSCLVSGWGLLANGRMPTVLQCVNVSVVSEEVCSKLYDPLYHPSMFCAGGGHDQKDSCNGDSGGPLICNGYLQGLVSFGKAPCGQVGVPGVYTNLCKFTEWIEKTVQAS
# Procedure: (§3) Increasing concentrations of inhibitors were incubated with various concentration of protease (final concentrations: KLK4, 1.5 nM; KLK12, 15 nM; KLK14, 2 nM; trypsin, 1 nM; matriptase, 4 nM; thrombin, 25 nM; α-chymotrypsin 25 nM) for 20 min in 200 µl assay buffer (100 mM Tris-HCl, 100 mM NaCl2, 0.005% triton-X, pH 8.0). Assays with thrombin and trypsin included 10 mM CaCl2. Enzyme activity was initiated by addition of substrate in 100 µl assay buffer (final concentration 100 µM; see Table 2). The rate of hydrolysis was measured at 405 nm over 7 min and was linear over this period. […] For SFTI-FCQR Asp14, K i was determined by inhibition at various substrate concentrations using the competitive inhibition model and non-linear regression in Prism 5 (GraphPad Software Inc). The K i for this inhibitor was also determined using the Morrison equation for tight binding inhibitors [43] (FVQR-pNA K M = 679.9±113.1 µM [16]) and non-linear regression in Prism 5. […] The k on and k off were determined from the lag phases and steady state of inhibition as previously described [44] using assay conditions as above and 500 µM substrate.
# [12] = biological target: T8, KLK4; test: biochemical
# Procedure: as §3
# [13] = biological target: T8, KLK4; test: Inhibition of fibrinogen proteolysis by KLK4 (SDS-PAGE); type: biochemical; parameters: polyhistidine (C); made in house; host or cells: Sf9 insect cells; conditions: 7 µM fibrinogen, 90 min
# Procedure: as §1
# [14] = test system: LNCaP, 22Rv1 and PC3 cells; parameters: method as in PMID 19549601; conditions: cited from earlier work
# [15] = biological target: T4, Thrombin; parameters: method as in PMID 11549459; conditions: substrate N-t-Boc-LRR-AMC; cited from earlier work
# [16] = test system: LNCaP, 22Rv1 and PC3 cells; test: Stability of SFTI variants in culture with prostate cancer cells; type: in vitro ADME; conditions: 1 µM inhibitor in serum-containing media on prostate cancer cells; residual KLK4 inhibition
# Procedure: as §2
# [17] = biological target: T8, KLK4; test: in vitro; conditions: recombinant KLK4 (isolated protease), pH 8
# Procedure: as §3
# [18] = relative to SFTI-FCQR Asp14 (Table 2)
molecule,measurement,setting,value
CC[C@H](C)[C@@H]1NC(=O)[C@@H]2CCCN2C(=O)[C@@H]2CCCN2C(=O)[C@H]([C@@H](C)CC)NC(=O)[C@H](CO)NC(=O)[C@H](CCCNC(=N)N)NC(=O)[C@H](CCC(N)=O)NC(=O)[C@@H]2CSSC[C@H](NC1=O)C(=O)N[C@@H](Cc1ccccc1)C(=O)N1CCC[C@H]1C(=O)N[C@@H](CC(N)=O)C(=O)NCC(=O)N[C@@H](Cc1ccccc1)C(=O)N2 [SFTI-FCQR Asn14] (cyclo(GFCQRSIPPICFPN); disulfide 3-11),relative increase in KLK14 inhibition compared to SFTI-FCQR Asp14,[1]; [18],six-fold
same,IC50,"[1]; substrate Ac-GSLR-pNA 100 µM, KLK14 2 nM",251 ± 21.9 nM
same,relative increase in trypsin inhibition compared to SFTI-FCQR Asp14,[2]; [18],two-fold
same,IC50,"[2]; substrate BAPNA 100 µM, trypsin 1 nM, 10 mM CaCl2",2180 ± 145 nM
same,inhibition of matriptase,"[3]; at 10,000 nM inhibitor",no inhibition
same,IC50,"[3]; substrate Bz-FVRpNA 100 µM, matriptase 4 nM",> 10 µM
same,inhibition of thrombin,"[4]; at 10,000 nM inhibitor",no inhibition
same,IC50,"[4]; substrate Bz-FVRpNA 100 µM, thrombin 25 nM, 10 mM CaCl2",> 10 µM
same,inhibition of α-chymotrypsin,"[5]; at 10,000 nM inhibitor",no inhibition
same,IC50,"[5]; substrate WpNA 100 µM, α-chymotrypsin 25 nM",> 10 µM
same,inhibition of KLK12 fibrinogen proteolysis,[6],No inhibition
same,inhibition of KLK14 fibrinogen proteolysis,[7],No inhibition
same,inhibition of trypsin fibrinogen proteolysis,[8],No inhibition
same,half-life at 1 µM,[9],2.29 to 2.92 days
same,half-life,"[10]; BALB/cFoxn1/Arc, mouse, serum, IV and IP",25 to 28 min
same,level at time molar at 4 h,"[10]; BALB/cFoxn1/Arc, mouse, serum, IV and IP, irrespective of delivery route, read-out: residual inhibitor concentration in serum after 4 hours",10 ± 0.8 nM
same,serum levels after oral delivery,"[10]; oral, LC-MS",did not result in detectable levels of inhibitor in serum
same,calculated second order rate constant (k off/K i),[11]; calculated from k off and K i,8.03e+08 M⁻¹ s⁻¹
same,fold improvement in KLK4 inhibition compared to SFTI-FCQR Asp14,[11]; [18],125 fold
same,IC50,"[11]; substrate FVQRpNA 100 µM, KLK4 1.5 nM, 20 min preincubation (SFTI-FCQR Asn14: 0.15 nM KLK4 over 2 hr; Lys14 assayed immediately after addition)",0.0635 ± 0.0024 nM
same,Ki,[12],0.0386 ± 0.006 nM
same,lowest inhibitor concentration blocking KLK4 proteolysis of fibrinogen,[13],62.5 nM
CC[C@H](C)[C@@H]1NC(=O)[C@@H]2CCCN2C(=O)[C@@H]2CCCN2C(=O)[C@H]([C@@H](C)CC)NC(=O)[C@H](CO)NC(=O)[C@H](CCCNC(=N)N)NC(=O)[C@H](CCC(N)=O)NC(=O)[C@@H]2CSSC[C@H](NC1=O)C(=O)N[C@@H](Cc1ccccc1)C(=O)N1CCC[C@H]1C(=O)N[C@@H](CO)C(=O)NCC(=O)N[C@@H](Cc1ccccc1)C(=O)N2 [SFTI-FCQR Ser14] (cyclo(GFCQRSIPPICFPS); disulfide 3-11),IC50,[12],29.2 ± 1.08 nM
same,Ki,[12],21.2 ± 3.81 nM
CC[C@H](C)[C@@H]1NC(=O)[C@@H]2CCCN2C(=O)[C@@H]2CCCN2C(=O)[C@H]([C@@H](C)CC)NC(=O)[C@H](CO)NC(=O)[C@H](CCCNC(=N)N)NC(=O)[C@H](CCC(N)=O)NC(=O)[C@@H]2CSSC[C@H](NC1=O)C(=O)N[C@@H](Cc1ccccc1)C(=O)N1CCC[C@H]1C(=O)N[C@@H](CC(=O)O)C(=O)NCC(=O)N[C@@H](Cc1ccccc1)C(=O)N2 [SFTI-FCQR Asp14] (cyclo(GFCQRSIPPICFPD); disulfide 3-11),Ki,"[11]; competitive inhibition model, various substrate concentrations, FVQRpNA",3.62 ± 0.26 nM
same,stability in culture with prostate cancer cells,[14],highly resistant to breakdown
same,Ki,[12],3.89 ± 0.4 nM
same,lowest inhibitor concentration blocking KLK4 proteolysis of fibrinogen,[13],250 nM
SFTI-1: 1.4 kDa cyclic Bowman-Birk serine protease inhibitor isolated from sunflower (Helianthus annuus) seeds,Ki,[15],5.05 µM
CC[C@H](C)[C@@H]1NC(=O)[C@@H]2CCCN2C(=O)[C@@H]2CCCN2C(=O)[C@H]([C@@H](C)CC)NC(=O)[C@H](CO)NC(=O)[C@H](CCCNC(=N)N)NC(=O)[C@H](CCC(N)=O)NC(=O)[C@@H]2CSSC[C@H](NC1=O)C(=O)N[C@@H](Cc1ccccc1)C(=O)N1CCC[C@H]1C(=O)N[C@@H](C)C(=O)NCC(=O)N[C@@H](Cc1ccccc1)C(=O)N2 [SFTI-FCQR Ala14] (cyclo(GFCQRSIPPICFPA); disulfide 3-11),IC50,[12],26.2 ± 0.85 nM
same,Ki,[12],18.3 ± 3.36 nM
CC[C@H](C)[C@@H]1NC(=O)[C@@H]2CCCN2C(=O)[C@@H]2CCCN2C(=O)[C@H]([C@@H](C)CC)NC(=O)[C@H](CO)NC(=O)[C@H](CCCNC(=N)N)NC(=O)[C@H](CCC(N)=O)NC(=O)[C@@H]2CSSC[C@H](NC1=O)C(=O)N[C@@H](Cc1ccccc1)C(=O)N1CCC[C@H]1C(=O)N[C@@H](CCCCN)C(=O)NCC(=O)N[C@@H](Cc1ccccc1)C(=O)N2 [SFTI-FCQR Lys14] (cyclo(GFCQRSIPPICFPK); disulfide 3-11),initial activity lost within the first 24 hr in cell culture,[16],two-thirds
same,half-life,[17],56.3 ± 6.2 min
same,IC50,[12],6.07 ± 0.13 nM
same,Ki,[12],3.56 ± 0.27 nM
CC[C@H](C)[C@@H]1NC(=O)[C@@H]2CCCN2C(=O)[C@@H]2CCCN2C(=O)[C@H]([C@@H](C)CC)NC(=O)[C@H](CO)NC(=O)[C@H](CCCNC(=N)N)NC(=O)[C@H](CCC(N)=O)NC(=O)[C@@H]2CSSC[C@H](NC1=O)C(=O)N[C@@H](Cc1ccccc1)C(=O)N1CCC[C@H]1C(=O)NCC(=O)NCC(=O)N[C@@H](Cc1ccccc1)C(=O)N2 [SFTI-FCQR Gly14] (cyclo(GFCQRSIPPICFPG); disulfide 3-11),IC50,[12],14.7 ± 1.09 nM
same,Ki,[12],10.4 ± 2.87 nM
